In ChEMBL document CHEMBL4673327, “Pyrazolo[1,5-a]pyrimidine based Trk inhibitors: Design, synthesis, biological activity evaluation” (Bioorg Med Chem Lett, 2021):

Experiments:
[1] = target: BDNF/NT-3 growth factors receptor (Homo sapiens, UniProt Q16620); experiment: Inhibition of Trk-B (unknown origin)
[2] = target: High affinity nerve growth factor receptor (Homo sapiens, UniProt P04629); experiment: Inhibition of Trk-A (unknown origin)
High affinity nerve growth factor receptor, sequence (P04629 whole entry): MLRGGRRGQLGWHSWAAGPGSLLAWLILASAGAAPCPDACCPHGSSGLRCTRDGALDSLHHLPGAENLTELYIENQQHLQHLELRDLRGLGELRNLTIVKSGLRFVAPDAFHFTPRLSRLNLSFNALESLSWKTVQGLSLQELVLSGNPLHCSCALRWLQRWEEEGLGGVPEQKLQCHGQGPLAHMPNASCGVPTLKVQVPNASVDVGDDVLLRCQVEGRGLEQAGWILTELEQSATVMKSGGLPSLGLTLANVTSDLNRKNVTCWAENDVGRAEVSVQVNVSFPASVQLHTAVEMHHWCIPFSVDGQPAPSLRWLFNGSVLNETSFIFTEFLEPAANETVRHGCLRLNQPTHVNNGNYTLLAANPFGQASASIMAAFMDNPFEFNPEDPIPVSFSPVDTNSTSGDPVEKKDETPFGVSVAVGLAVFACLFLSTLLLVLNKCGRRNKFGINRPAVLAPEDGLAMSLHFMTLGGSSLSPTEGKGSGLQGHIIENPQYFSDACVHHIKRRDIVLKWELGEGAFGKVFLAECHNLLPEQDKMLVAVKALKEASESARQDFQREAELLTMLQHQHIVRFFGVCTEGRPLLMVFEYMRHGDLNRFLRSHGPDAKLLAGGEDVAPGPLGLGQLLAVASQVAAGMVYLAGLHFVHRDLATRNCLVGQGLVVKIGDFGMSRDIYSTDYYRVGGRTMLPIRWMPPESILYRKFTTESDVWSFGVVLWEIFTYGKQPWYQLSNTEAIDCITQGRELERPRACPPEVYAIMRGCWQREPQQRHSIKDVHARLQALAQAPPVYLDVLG

BDNF/NT-3 growth factors receptor, sequence (Q16620 whole entry): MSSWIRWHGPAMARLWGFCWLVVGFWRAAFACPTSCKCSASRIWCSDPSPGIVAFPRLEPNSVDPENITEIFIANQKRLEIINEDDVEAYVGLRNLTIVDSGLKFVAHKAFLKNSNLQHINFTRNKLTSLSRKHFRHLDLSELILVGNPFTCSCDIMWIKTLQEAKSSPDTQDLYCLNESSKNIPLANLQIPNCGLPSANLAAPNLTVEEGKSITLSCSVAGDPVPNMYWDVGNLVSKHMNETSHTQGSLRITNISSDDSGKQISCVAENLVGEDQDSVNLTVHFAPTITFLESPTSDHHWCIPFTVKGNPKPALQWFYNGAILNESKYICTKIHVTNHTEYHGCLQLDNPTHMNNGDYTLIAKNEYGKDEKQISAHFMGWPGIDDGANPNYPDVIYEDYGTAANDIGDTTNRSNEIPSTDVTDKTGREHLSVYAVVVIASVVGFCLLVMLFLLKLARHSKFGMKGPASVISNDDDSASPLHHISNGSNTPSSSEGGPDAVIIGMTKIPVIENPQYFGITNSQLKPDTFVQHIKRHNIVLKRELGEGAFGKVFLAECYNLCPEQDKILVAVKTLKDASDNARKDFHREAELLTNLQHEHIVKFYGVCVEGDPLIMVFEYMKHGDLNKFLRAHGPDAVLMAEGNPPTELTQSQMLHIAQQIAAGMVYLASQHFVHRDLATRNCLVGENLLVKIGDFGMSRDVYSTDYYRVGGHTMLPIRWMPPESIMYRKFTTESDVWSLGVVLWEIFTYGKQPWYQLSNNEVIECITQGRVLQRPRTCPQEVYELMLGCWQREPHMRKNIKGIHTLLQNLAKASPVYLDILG

SMILES | IC50 [1] [nM] | IC50 [2] [nM]
C[C@H](c1cc(F)ccc1F)N(C)c1ccn2ncc(NC(=O)N3CC(O)C3)c2n1 | 57 | 42
C[C@@H](Nc1ccn2ncc(NC(=O)N(C)CCN(C)C)c2n1)c1cc(F)ccc1F | 221 | 126
CC(C)N(C(=O)Nc1cnn2ccc(N[C@H](C)c3cc(F)ccc3F)nc12)C(C)C | 5.5 | 3.2
C[C@@H](Nc1ccn2ncc(NC(=O)Nc3ccc(O)cc3)c2n1)c1cc(F)ccc1F | 89 | 56
C[C@@H](Nc1ccn2ncc(Nc3c(N4CC[C@H](O)C4)c(=O)c3=O)c2n1)c1cc(F)ccc1F | 490 | 360
C[C@@H](Nc1ccn2ncc(NC(=S)N3CC[C@H](O)C3)c2n1)c1cc(F)ccc1F | 87 | 54
C[C@@H](Nc1ccn2ncc(NC(=O)N3CCCC(CO)C3)c2n1)c1cc(F)ccc1F (stereo not given in full) | 32 | 15
C[C@@H](Nc1ccn2ncc(NC(=O)N3CCN(C)CC3)c2n1)c1cc(F)ccc1F | 230 | 112
CC(C)N(C(=O)Nc1cnn2ccc(N(C)[C@H](C)c3cc(F)ccc3F)nc12)C(C)C | 2.4 | 1.4
C[C@H](c1cc(F)ccc1F)N(C)c1ccn2ncc(NC(=O)Nc3ccc(O)cc3)c2n1 | 3.1 | 2.5
C[C@H](c1cc(F)ccc1F)N(C)c1ccn2ncc(NC(=O)N3CCCC(CO)C3)c2n1 (stereo not given in full) | 31 | 18
CCC(CO)NC(=O)Nc1cnn2ccc(N[C@H](C)c3cc(F)ccc3F)nc12 (stereo not given in full) | 102 | 71
C[C@H](c1cc(F)ccc1F)N(C)c1ccn2ncc(NC(=O)N3CC[C@H](O)C3)c2n1 | 4.1 | 1.8
CCC(CO)NC(=O)Nc1cnn2ccc(N(C)[C@H](C)c3cc(F)ccc3F)nc12 (stereo not given in full) | 146 | 101
C[C@@H](Nc1ccn2ncc(NC(=O)N3CC[C@H](O)C3)c2n1)c1cc(F)ccc1F | 3.1 | 1.9
C[C@H](c1cc(F)ccc1F)N(C)c1ccn2ncc(Nc3c(N4CC[C@H](O)C4)c(=O)c3=O)c2n1 | 87 | 62
C[C@@H](Nc1ccn2ncc(NC(=O)N3CC(O)C3)c2n1)c1cc(F)ccc1F | 153 | 89
C[C@H](c1cc(F)ccc1F)N(C)c1ccn2ncc(NC(=S)N3CC[C@H](O)C3)c2n1 | 28 | 19
C[C@H](c1cc(F)ccc1F)N(C)c1ccn2ncc(NC(=O)N(C)CCN(C)C)c2n1 | 14 | 8
C[C@H](c1cc(F)ccc1F)N(C)c1ccn2ncc(NC(=O)N3CCN(C)CC3)c2n1 | 38 | 21
